Laboratory results from ChEMBL document CHEMBL5518173, “Discovery of a novel anti-osteoporotic agent from marine fungus-derived structurally diverse sirenins” (Eur J Med Chem, 2024).
pIC50: −log10 of the molar value. Active and inactive are the calls of the source. The rule behind the calls is not given here.

Columns and labels:
[1] = test system: RAW264.7; test: Inhibition of LPS-induced NF-kappaB activation in mouse RAW264.7 cells transfected with luciferase reporter gene at 20 uM pretreated with compounds for 30 mins followed by LPS stimulation for 8 hrs by luciferase reporter gene assay; assay type: cell-based; details: time 8.5 hrs
[2] = species: Danio rerio; test: Anti osteoporosis activity in prednisone induced Tg (ola.sp7:nlsGFP) Zebrafish model assessed as mitigation of fluorescence area reduction in zebrafish opercle at 2.5 to 5 uM by microscopy based analysis; assay type: functional, organism-based; details: dose 2.5-5 µM
[3] = target: T1, Interferon regulatory factor 3 (Homo sapiens) (UniProt Q14653); test: Inhibition of IRF3 induced IFN-beta luciferase activation in HEK293T cells at 1 to 30 uM by Dual luciferase reporter assay; assay type: cell-based; details: dose 1-30 µM
T1 sequence (whole entry): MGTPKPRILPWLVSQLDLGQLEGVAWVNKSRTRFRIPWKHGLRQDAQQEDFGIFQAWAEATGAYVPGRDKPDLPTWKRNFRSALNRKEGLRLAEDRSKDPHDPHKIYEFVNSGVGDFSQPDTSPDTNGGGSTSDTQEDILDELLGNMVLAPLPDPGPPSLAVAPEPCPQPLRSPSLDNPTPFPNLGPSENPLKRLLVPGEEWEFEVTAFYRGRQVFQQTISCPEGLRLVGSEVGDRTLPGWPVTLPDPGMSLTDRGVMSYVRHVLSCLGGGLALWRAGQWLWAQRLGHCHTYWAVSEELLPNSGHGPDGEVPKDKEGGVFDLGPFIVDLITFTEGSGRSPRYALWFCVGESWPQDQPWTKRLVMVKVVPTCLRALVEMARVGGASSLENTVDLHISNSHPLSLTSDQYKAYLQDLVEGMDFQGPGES

[4] = species: Danio rerio; test: Anti osteoporosis activity in prednisolone induced Tg (ola.sp7:nlsGFP) Zebrafish model assessed as upregulation of vdrb-mRNA expression at 5 uM by real-time qPCR analysis; assay type: functional, organism-based
[5] = target: T2, Serine/threonine-protein kinase TBK1 (Homo sapiens) (UniProt Q9UHD2); test: Inhibition of TBK1 induced IFN-beta luciferase activation in HEK293T cells at 1 to 30 uM by Dual luciferase reporter assay; assay type: cell-based; details: dose 1-30 µM
T2 sequence (whole entry): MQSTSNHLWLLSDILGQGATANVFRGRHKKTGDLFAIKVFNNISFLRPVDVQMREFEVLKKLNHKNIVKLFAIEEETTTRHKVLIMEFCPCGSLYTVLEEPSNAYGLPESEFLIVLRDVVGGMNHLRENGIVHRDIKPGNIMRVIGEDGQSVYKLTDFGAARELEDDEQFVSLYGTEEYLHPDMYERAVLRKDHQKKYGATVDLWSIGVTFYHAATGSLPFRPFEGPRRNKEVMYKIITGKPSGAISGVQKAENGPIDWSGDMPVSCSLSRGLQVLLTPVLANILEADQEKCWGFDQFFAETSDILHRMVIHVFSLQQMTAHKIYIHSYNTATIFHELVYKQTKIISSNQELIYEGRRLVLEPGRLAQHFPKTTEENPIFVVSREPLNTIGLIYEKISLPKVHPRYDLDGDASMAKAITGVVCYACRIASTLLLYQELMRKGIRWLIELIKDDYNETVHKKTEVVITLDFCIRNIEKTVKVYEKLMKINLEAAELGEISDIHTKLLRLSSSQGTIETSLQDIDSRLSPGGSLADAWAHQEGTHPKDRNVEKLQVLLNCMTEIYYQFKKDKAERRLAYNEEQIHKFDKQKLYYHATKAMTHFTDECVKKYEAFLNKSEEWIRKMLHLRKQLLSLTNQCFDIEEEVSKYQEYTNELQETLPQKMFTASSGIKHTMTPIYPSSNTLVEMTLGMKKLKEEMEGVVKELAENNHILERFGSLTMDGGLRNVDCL

[6] = species: Danio rerio; test: Anti osteoporosis activity in Tg (ola.sp7:nlsGFP) Zebrafish model assessed as reversal of prednisone induced bmp4 gene inhibition 2.5 to 10 uM by real-time qPCR analysis; assay type: functional, organism-based; details: dose 2.5-10 µM
[7] = test system: HEK293T; test: Inhibition of cGAS/STING induced IFN-beta luciferase activation in HEK293T cells at 1 to 30 uM by Dual luciferase reporter assay; assay type: cell-based; details: Homo sapiens, dose 1-30 µM
[8] = species: Danio rerio; test: Anti osteoporosis activity in Tg (ola.sp7:nlsGFP) Zebrafish model assessed as reversal of prednisone induced alp gene inhibition 2.5 to 10 uM by real-time qPCR analysis; assay type: functional, organism-based; details: dose 2.5-10 µM
[9] = species: Danio rerio; test: Anti osteoporosis activity in Tg (ola.sp7:nlsGFP) Zebrafish model assessed as reversal of prednisone induced bmp2a gene inhibition 2.5 to 10 uM by real-time qPCR analysis; assay type: functional, organism-based; details: dose 2.5-10 µM
[10] = test system: BMDM; test: Downregulation of TNF-alpha mRNA expression in mouse BMDM cells by real-time PCR analysis; assay type: functional, cell-based; details: dose 1-30 µM
[11] = test system: BMDM; test: Downregulation of IFN-beta mRNA expression in mouse BMDM cells by real-time PCR analysis; assay type: functional, cell-based; details: dose 1-30 µM
[12] = species: Danio rerio; test: Anti osteoporosis activity in prednisolone induced Tg (ola.sp7:nlsGFP) Zebrafish model assessed as upregulation of itbg5 mRNA expression at 5 uM by real-time qPCR analysis; assay type: functional, organism-based
[13] = test system: BMMC; test: Anti-osteoporosis activity in mouse BMMC cells assessed as inhibition of RANKL-induced osteoclast differentiation measured after 3 days in presence of MCSF by TRAP staining based assay; assay type: functional, cell-based; details: dose 5-15 µM, time 3.0 day
[14] = test system: BMDM; test: Downregulation of CXCL10 mRNA expression in mouse BMDM cells by real-time PCR analysis; assay type: functional, cell-based; details: dose 1-30 µM
[15] = species: Danio rerio; test: Anti osteoporosis activity in prednisone induced Tg (ola.sp7:nlsGFP) Zebrafish model assessed as mitigation of fluorescence density reduction in zebrafish opercle at 2.5 to 5 uM by microscopy based analysis; assay type: functional, organism-based; details: dose 2.5-5 µM
[16] = species: Danio rerio; test: Anti osteoporosis activity in prednisone induced Tg (ola.sp7:nlsGFP) Zebrafish model assessed as mitigation of fluorescence area reduction in zebrafish branchiostegal rays at 2.5 to 5 uM by microscopy based analysis; assay type: functional, organism-based; details: dose 2.5-5 µM
[17] = test system: BMMC; test: Cytotoxicity against mouse BMMC cells at 5 to 15 uM measured after 72 hrs by MTT assay; assay type: toxicity, cell-based; details: dose 5-15 µM
[18] = species: Danio rerio; test: Anti osteoporosis activity in prednisolone induced Tg (ola.sp7:nlsGFP) Zebrafish model assessed as upregulation of col1a2 mRNA expression at 5 uM by real-time qPCR analysis; assay type: functional, organism-based
[19] = species: Danio rerio; test: Anti osteoporosis activity in prednisone induced Tg (ola.sp7:nlsGFP) Zebrafish model assessed as mitigation of fluorescence density reduction in zebrafish branchiostegal rays at 2.5 to 5 uM by microscopy based analysis; assay type: functional, organism-based; details: dose 2.5-5 µM
[20] = species: Danio rerio; test: Anti osteoporosis activity in prednisolone induced Tg (ola.sp7:nlsGFP) Zebrafish model assessed as upregulation of col4a6 mRNA expression at 5 uM by real-time qPCR analysis; assay type: functional, organism-based
[21] = species: Danio rerio; test: Anti osteoporosis activity in prednisolone induced Tg (ola.sp7:nlsGFP) Zebrafish model assessed as upregulation of frem2b mRNA expression at 5 uM by real-time qPCR analysis; assay type: functional, organism-based
[22] = Inhibition of LPS-induced NF-kappaB activation in mouse RAW264.7 cells transfected with luciferase reporter gene pretreated with compounds for 30 mins followed by LPS stimulation for 8 hrs by luciferase reporter gene assay; assay type: cell-based
[23] = species: Danio rerio; test: Anti osteoporosis activity in prednisolone induced Tg (ola.sp7:nlsGFP) Zebrafish model assessed as upregulation of frem2a mRNA expression at 5 uM by real-time qPCR analysis; assay type: functional, organism-based

In the case of `C[C@]1(C(=O)O)[C@@H]2C=C(C(=O)O)CC[C@@H]21`, the inhibition [1] was “Active”.
In the case of `COC(=O)CC[C@@]1(C)[C@@H]2C=C(C(=O)O)CC[C@@H]21`, the Activity [2] was “Active”, the inhibition [3] was “Active” and the Activity [4] was “Active”. The inhibition [5] was “Active”, the Activity [6] was “Active” and the inhibition [7] was “Active”. The inhibition [1] was “Active”, the Activity [8] was “Active” and the Activity [9] was “Active”. For the same compound, the Activity [10] was “Dose-Dependent Effect”, the Activity [11] was “Dose-Dependent Effect” and the Activity [12] was “Active”. For the same compound, the Activity [13] was “Dose-Dependent Effect”, the Activity [14] was “Dose-Dependent Effect” and the Activity [15] was “Active”. For the same compound, the Activity [16] was “Active”, the Activity [17] was “Non-Toxic” and the Activity [18] was “Active”. For the same compound, the Activity [19] was “Active”, the Activity [20] was “Active” and the Activity [21] was “Active”. The pIC50 [22] was 4.84 and the Activity [23] was “Active”.
In the case of `CC(C)(O)C(=O)CC[C@@]1(C)[C@@H]2C=C(C(=O)O)CC[C@@H]21`, the inhibition [1] was “Active”.
